Assay results from patent US5484717A, “Antibiotic 31F508α1, 31F508α2, 31F508β1, 31F508β2” (American Cyanamid Company, priority 1995, dated 1996).
Values after ≈ are worked out from the molar mass of the structure shown.

Experiments:
B. cereus (Bacto) = assay: In vitro antibacterial activity, agar dilution MIC; format: cell-based; conditions: Bacillus cereus, 18 h, without sheep blood, read-out: Minimum Inhibitory Concentration
Experimental: (§1) The in vitro antibacterial activity of 31F508α1 and α2 is determined against a spectrum of gram-positive and gram-negative bacteria by a standard agar dilution method. Mueller-Hinton agar with and without 5% sheep blood and two-fold decreasing concentrations of either 31F508α1 or α2 are poured into petri dishes. The agar surfaces are inoculated with 1 to 5×10^4 colony forming units of bacteria by means of the Steers replicating device. The lowest concentration of antibiotic that inhibits growth of a bacterial strain after 18 hours incubation is recorded as the minimal inhibitory concentration for that strain. The results are given in Table V with sheeps blood added to the agar.

CNS (4615) = assay: In vitro antibacterial activity, agar dilution MIC; format: cell-based; conditions: 18 h, read-out: Minimum Inhibitory Concentration, CNS (4615), without sheep blood
Experimental: as §1

CNS (ID-3120) = assay: In vitro antibacterial activity, agar dilution MIC; format: cell-based; conditions: 18 h, read-out: Minimum Inhibitory Concentration, CNS (ID-3120), without sheep blood
Experimental: as §1

CNS (ID-3941) = assay: In vitro antibacterial activity, agar dilution MIC; format: cell-based; conditions: 18 h, read-out: Minimum Inhibitory Concentration, CNS (ID-3941), without sheep blood
Experimental: as §1

E. Avium (ID-3953) = assay: In vitro antibacterial activity, agar dilution MIC; format: cell-based; conditions: Enterococcus avium, 18 h, without sheep blood, read-out: Minimum Inhibitory Concentration
Experimental: as §1

E. coli (ATCC 25922) = assay: In vitro antibacterial activity, agar dilution MIC; format: cell-based; conditions: Escherichia coli, ATCC25922, without sheep blood, 18 hours, read-out: Minimum Inhibitory Concentration
Experimental: as §1

E. coli (J2175) = assay: In vitro antibacterial activity, agar dilution MIC; format: cell-based; conditions: Escherichia coli, 18 h, without sheep blood, read-out: Minimum Inhibitory Concentration
Experimental: as §1

E. coli (J2445) = assay: In vitro antibacterial activity, agar dilution MIC; format: cell-based; conditions: Escherichia coli, 18 h, without sheep blood, read-out: Minimum Inhibitory Concentration
Experimental: as §1

E. faecalis (12201) = assay: In vitro antibacterial activity, agar dilution MIC; format: cell-based; conditions: Enterococcus faecalis, 18 h, without sheep blood, read-out: Minimum Inhibitory Concentration
Experimental: as §1

E. faecalis (ATCC 29212) = assay: In vitro antibacterial activity, agar dilution MIC; format: cell-based; conditions: Enterococcus faecalis, ATCC29212, 18 h, without sheep blood, read-out: Minimum Inhibitory Concentration
Experimental: as §1

E. faecalis (ID-1829) = assay: In vitro antibacterial activity, agar dilution MIC; format: cell-based; conditions: Enterococcus faecalis, 18 h, without sheep blood, read-out: Minimum Inhibitory Concentration
Experimental: as §1

E. faecalis (ID-2131) = assay: In vitro antibacterial activity, agar dilution MIC; format: cell-based; conditions: Enterococcus faecalis, 18 h, without sheep blood, read-out: Minimum Inhibitory Concentration
Experimental: as §1

E. faecalis (ID-4168) = assay: In vitro antibacterial activity, agar dilution MIC; format: cell-based; conditions: Enterococcus faecalis, 18 h, without sheep blood, read-out: Minimum Inhibitory Concentration
Experimental: as §1

E. faecium (12202) = assay: In vitro antibacterial activity, agar dilution MIC; format: cell-based; conditions: Enterococcus faecium, 18 h, without sheep blood, read-out: Minimum Inhibitory Concentration
Experimental: as §1

E. faecium (ID-3301) = assay: In vitro antibacterial activity, agar dilution MIC; format: cell-based; conditions: Enterococcus faecium, 18 h, without sheep blood, read-out: Minimum Inhibitory Concentration
Experimental: as §1

E. faecium (ID-4133) = assay: In vitro antibacterial activity, agar dilution MIC; format: cell-based; conditions: Enterococcus faecium, without sheep blood, 18 hours, read-out: Minimum Inhibitory Concentration
Experimental: as §1

M. morganii (VGH 84-11) = assay: In vitro antibacterial activity, agar dilution MIC; format: cell-based; conditions: Morganella morganii, 18 h, without sheep blood, read-out: Minimum Inhibitory Concentration
Experimental: as §1

[1] = test system: P. aeruginosa (ATCC 27853); assay: In vitro antibacterial activity, agar dilution MIC; format: cell-based; conditions: Pseudomonas aeruginosa, ATCC27853, without sheep blood, 18 hours, read-out: Minimum Inhibitory Concentration
Experimental: as §1

S. Pyogenes (ID-3187) = assay: In vitro antibacterial activity, agar dilution MIC; format: cell-based; conditions: Streptococcus pyogenes, 18 h, without sheep blood, read-out: Minimum Inhibitory Concentration
Experimental: as §1

S. agalactiae (ID-4079) = assay: In vitro antibacterial activity, agar dilution MIC; format: cell-based; conditions: Streptococcus agalactiae, 18 h, read-out: Minimum Inhibitory Concentration, S. acralactiae (ID-4079), without sheep blood
Experimental: as §1

S. lutea (ATCC 9341) = assay: In vitro antibacterial activity, agar dilution MIC; format: cell-based; conditions: Micrococcus luteus, ATCC9341, without sheep blood, 18 hours, read-out: Minimum Inhibitory Concentration
Experimental: as §1

[2] = test system: Staphylococcus aureus (ATCC 29213); assay: In vitro antibacterial activity, agar dilution MIC; format: cell-based; conditions: ATCC29213, 18 h, Staphylococcus aureus (ATCC 29213-), without sheep blood, read-out: Minimum Inhibitory Concentration
Experimental: as §1

[3] = test system: Staphylococcus aureus (ID-2371); assay: In vitro antibacterial activity, agar dilution MIC; format: cell-based; conditions: 18 h, without sheep blood, read-out: Minimum Inhibitory Concentration
Experimental: as §1

[4] = test system: Staphylococcus aureus (ID-2727); assay: In vitro antibacterial activity, agar dilution MIC; format: cell-based; conditions: 18 h, without sheep blood, read-out: Minimum Inhibitory Concentration
Experimental: as §1

[5] = test system: Staphylococcus aureus (ID-3105); assay: In vitro antibacterial activity, agar dilution MIC; format: cell-based; conditions: 18 h, without sheep blood, read-out: Minimum Inhibitory Concentration
Experimental: as §1

[6] = test system: Staphylococcus aureus (ID-4379); assay: In vitro antibacterial activity, agar dilution MIC; format: cell-based; conditions: 18 h, without sheep blood, read-out: Minimum Inhibitory Concentration
Experimental: as §1

[7] = test system: Staphylococcus aureus (MEMC-89-4); assay: In vitro antibacterial activity, agar dilution MIC; format: cell-based; conditions: 18 h, without sheep blood, read-out: Minimum Inhibitory Concentration
Experimental: as §1

[8] = test system: Staphylococcus aureus (SMITH); assay: In vitro antibacterial activity, agar dilution MIC; format: cell-based; conditions: 18 h, without sheep blood, read-out: Minimum Inhibitory Concentration
Experimental: as §1

[9] = test system: Staphylococcus haemolyticus (ID-4061); assay: In vitro antibacterial activity, agar dilution MIC; format: cell-based; conditions: 18 h, without sheep blood, read-out: Minimum Inhibitory Concentration
Experimental: as §1

[10] = test system: Streptococcus pneumoniae (ID-4444); assay: In vitro antibacterial activity, agar dilution MIC; format: cell-based; conditions: 18 h, without sheep blood, read-out: Minimum Inhibitory Concentration
Experimental: as §1

Escherichia coli#311 = assay: In vivo antibacterial activity in intraperitoneally infected mice; set-up: species or system female CD-1 mice; conditions: one half hour after infection
Experimental: The in vivo antibacterial activity of antibiotic 31F508α2 is established by infecting female CD-1 mice from Charles River Laboratories,weighing 20+-- 2 g each, intraperitoneally of sufficient bacterial cells suspended in either broth or 5% hog gastric mucin to kill non-treated controls within 24-48 hours. Two-fold serially diluted doses of the antibacterial agent contained in phosphate buffered saline (PBS, pH 7.4, 0.01M) are administered intravenously (0.2 ml) or contained in 0.2% aqueous agar, subcutaneously (0.5 ml) or orally (0.5 ml) one half hour after infection. In each test, five mice are treated per dose level.

[11] = Stability (conversion in neutral or basic solution; decomposition on drying); format: physicochemical; conditions: listed as α2
Experimental: The crude product is then separated into the α1, α2, β1 and β2 components and further purified by high performance liquid chromatography on a reverse-phase column equilibrated with 0.1% trifluoroacetic acid in water followed by slution with an acetonitrile gradient to 10%. Active fractions are pooled and freeze dried. Freeze dried fractions are dissolved in 0.01M hydrochloric acid, applied to a reverse phase column and eluted with an acetonitrile gradient to 10% resolves the two components α1 and α2. […] Beta is the quinone form of α1 or α2 having lost hydrogens from the oxygens connected to carbon10 and 13.
The freeze dried material is suspended in methanol and the insolubles removed by filtration. The soluble material is concentrated to dryness and the concentrate dissolved in 1% trifluoroacetic acid in water. Insolubles are removed by centrifugation. The soluble material is loaded onto a preparative reverse phase C18 column equilibrated with 0.1% trifluoroacetic acid in water. The column is eluted with an acetonitrile gradient to 10%. Active fractions containing the alpha component are pooled and freeze dried. Active fractions containing the beta component are adjusted to pH 8 with solid ammonium bicarbonate and extracted with methylene chloride. The beta component is stored in methylene chloride as drying leads to rapid decomposition. […]

SMILES: COc1c(C)c(O)c2c(c1O)C1COC3C4CC5C(C(C2N2CCOC52)N13)N4C (stereo not drawn) [31F508α2]
- MIC (B. cereus (Bacto)): 250 ng/mL (≈ 623 nM)
- MIC (CNS (4615)): 2 ng/mL (≈ 4.98 nM)
- MIC (CNS (ID-3120)): 2 ng/mL (≈ 4.98 nM)
- MIC (CNS (ID-3941)): 2 ng/mL (≈ 4.98 nM)
- MIC (E. Avium (ID-3953)): 30 ng/mL (≈ 74.7 nM)
- MIC (E. coli (ATCC 25922)): 500 ng/mL (≈ 1250 nM)
- MIC (E. coli (J2175)): 1000 ng/mL (≈ 2490 nM)
- MIC (E. coli (J2445)): 4 ng/mL (≈ 9.96 nM)
- MIC (E. faecalis (12201)): 15 ng/mL (≈ 37.4 nM)
- MIC (E. faecalis (ATCC 29212)): 60 ng/mL (≈ 149 nM)
- MIC (E. faecalis (ID-1829)): 60 ng/mL (≈ 149 nM)
- MIC (E. faecalis (ID-2131)): 250 ng/mL (≈ 623 nM)
- MIC (E. faecalis (ID-4168)): 120 ng/mL (≈ 299 nM)
- MIC (E. faecium (12202)): 15 ng/mL (≈ 37.4 nM)
- MIC (E. faecium (ID-3301)): 120 ng/mL (≈ 299 nM)
- MIC (E. faecium (ID-4133)): 2 ng/mL (≈ 4.98 nM)
- MIC (M. morganii (VGH 84-11)): 500 ng/mL (≈ 1250 nM)
- MIC [1]: 2000 ng/mL (≈ 4980 nM)
- MIC (S. Pyogenes (ID-3187)): 2 ng/mL (≈ 4.98 nM)
- MIC (S. agalactiae (ID-4079)): 4 ng/mL (≈ 9.96 nM)
- MIC (S. lutea (ATCC 9341)): 2 ng/mL (≈ 4.98 nM)
- MIC [2]: 8 ng/mL (≈ 19.9 nM)
- MIC [3]: 4 ng/mL (≈ 9.96 nM)
- MIC [4]: 2 ng/mL (≈ 4.98 nM)
- MIC [5]: 4 ng/mL (≈ 9.96 nM)
- MIC [6]: 4 ng/mL (≈ 9.96 nM)
- MIC [7]: 4 ng/mL (≈ 9.96 nM)
- MIC [8]: 2 ng/mL (≈ 4.98 nM)
- MIC [9]: 2 ng/mL (≈ 4.98 nM)
- MIC [10]: 2 ng/mL (≈ 4.98 nM)
- Survival Ratios (Escherichia coli#311; SIV (intravenous), 0.25 Mg/Kg): 0/5
- Survival Ratios (Escherichia coli#311; SIV (intravenous), 0.5 Mg/Kg): 0/5
- Survival Ratios (Escherichia coli#311; SIV (intravenous), 1 Mg/Kg): 0/5
- Survival Ratios (Escherichia coli#311; SIV (intravenous), 2 Mg/Kg): 0/5
- Survival Ratios (Escherichia coli#311; SIV (intravenous), 4 Mg/Kg): 0/5
- Survival Ratios (Escherichia coli#311; SOD (oral), 0.25 Mg/Kg): 0/5
- Survival Ratios (Escherichia coli#311; SOD (oral), 0.5 Mg/Kg): 0/5
- Survival Ratios (Escherichia coli#311; SOD (oral), 1 Mg/Kg): 0/5
- Survival Ratios (Escherichia coli#311; SOD (oral), 2 Mg/Kg): 0/5
- Survival Ratios (Escherichia coli#311; SOD (oral), 4 Mg/Kg): 0/5
- Survival Ratios (Escherichia coli#311; SOD (oral), 8 Mg/Kg): 0/5
- Survival Ratios (Escherichia coli#311; SSC (subcutaneous), 0.25 Mg/Kg): 0/5
- Survival Ratios (Escherichia coli#311; SSC (subcutaneous), 0.5 Mg/Kg): 0/5
- Survival Ratios (Escherichia coli#311; SSC (subcutaneous), 1 Mg/Kg): 0/5
- Survival Ratios (Escherichia coli#311; SSC (subcutaneous), 2 Mg/Kg): 0/5
- Survival Ratios (Escherichia coli#311; SSC (subcutaneous), 4 Mg/Kg): 0/5
- Survival Ratios (Escherichia coli#311; SSC (subcutaneous), 8 Mg/Kg): 0/5
- Conversion to the beta (quinone) form [11]: converts to the beta form
